Measured values from publication PMC12682127, “Structural basis for inhibition of Mycobacterium tuberculosis α-methylacyl-CoA racemase by 2-arylthiopropanoyl-CoA inhibitor analogs” (The Journal of Biological Chemistry, 2025).
Like-named read-outs stand apart in the source and are kept apart here.

Experiments:
[1] = molecular target: T1, Mycobacterium tuberculosis α-methylacyl-CoA racemase (MCR) (Mycobacterium tuberculosis, UniProt O06543); assay: MCR inhibition, colorimetric assay, dose-response curves; assay type: biochemical; parameters: made in house
[2] = molecular target: T1, Mycobacterium tuberculosis α-methylacyl-CoA racemase (MCR); conditions: mean ± SEM, n = 3; cited from earlier work
[3] = molecular target: T1, Mycobacterium tuberculosis α-methylacyl-CoA racemase (MCR); parameters: made in house; method as in PMID 40447188; conditions: cited from earlier work
[4] = molecular target: T1, Mycobacterium tuberculosis α-methylacyl-CoA racemase (MCR); assay: Jump-dilution experiment for reversibility of MCR inhibition; assay type: biochemical; parameters: made in house; conditions: inhibitor at 24 × or 0.24 × IC50, 12 min
Experimental: Inhibition assays were conducted as previously described ([17]) in 50 mM NaH2PO4-NaOH, 100 mM NaCl, 1 mM EDTA (pH 7.4), and 3% (v/v) dimethylsulfoxide. Product formation was monitored at 354 nm. […] Enzyme and inhibitor were preincubated for 10 min before adding substrate to initiate the assay. Rates were determined using ICEKAT ([50], [51]), and dose-response curves ([36], [37]) were fitted using SigmaPlot 15.0 with a 4-parameter logistic model. Data are reported as pIC50 ± SEM (n = 3).

[5] = molecular target: T1, Mycobacterium tuberculosis α-methylacyl-CoA racemase (MCR); assay: Inhibition mode determination / Ki (kinetic analysis, colorimetric assay); assay type: biochemical; parameters: made in house
Experimental: Enzyme and inhibitor solutions were pre-incubated for 10 min before adding these mixtures to the substrate to initiate the assay. Rates were determined using ICEKAT ([50], [51]) and analyzed with SigmaPlot 15.0 using Simple EK and enzyme kinetics macros ([53]). The best-fitting inhibition model was selected based on graphical analysis and statistical ranking of models. The Ki value was determined as the mean ± SEM from three independent repeats.

[6] = Log10 IC50, repeat 1, 4-parameter logistic fit coefficient
[7] = Log10 IC50, repeat 2, 4-parameter logistic fit coefficient
[8] = Log10 IC50, repeat 3, 4-parameter logistic fit coefficient
[9] = pIC50, mean ± SEM, n = 3, MCR 3.12 nM, substrate 96 μM, 10 min preincubation, pH 7.4
[10] = repeat 1, 4-parameter logistic fit coefficient
[11] = repeat 2, 4-parameter logistic fit coefficient
[12] = repeat 3, 4-parameter logistic fit coefficient

T1 sequence (O06543 whole entry): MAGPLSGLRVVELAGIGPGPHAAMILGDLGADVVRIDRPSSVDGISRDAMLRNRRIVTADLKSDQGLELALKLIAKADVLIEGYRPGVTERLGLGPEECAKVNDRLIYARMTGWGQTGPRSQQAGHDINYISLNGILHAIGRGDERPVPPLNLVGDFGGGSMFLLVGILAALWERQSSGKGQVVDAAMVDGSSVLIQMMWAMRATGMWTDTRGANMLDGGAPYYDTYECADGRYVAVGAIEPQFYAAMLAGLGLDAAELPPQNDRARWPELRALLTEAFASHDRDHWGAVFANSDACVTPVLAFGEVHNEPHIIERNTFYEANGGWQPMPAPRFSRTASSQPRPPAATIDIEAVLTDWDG

| Structure (SMILES) | IC50 [1, 6] [nM] | IC50 [1, 7] [nM] | IC50 [1, 8] [nM] | IC50 [1, 9] [nM] | Hillslope [1, 10] | Hillslope [1, 11] | Hillslope [1, 12] | Ki [2] [nM] | pIC50 [3] | Potency relative to ibuprofenoyl-CoA, from pIC50 [1] | Reversibility of inhibition [4] | Ki ([5]; mean ± SEM, n = 3, competitive model) [nM] | Ki ([5]; repeat 1) [nM] | Ki ([5]; repeat 2) [nM] | Ki ([5]; repeat 3) [nM] | Mode of inhibition ([5]; Lineweaver-Burk plot / kinetic analysis) |
| --- | --- | --- | --- | --- | --- | --- | --- | --- | --- | --- | --- | --- | --- | --- | --- | --- |
| CC(Sc1cccc(OCCc2ccccc2)c1)C(=O)SCCNC(=O)CCNC(=O)C(O)C(C)(C)COP(=O)(O)OP(=O)(O)OCC1OC(n2cnc3c(N)ncnc32)C(O)C1OP(=O)(O)O (racemic) [Compound 4, (±)-2-(3-(2-Phenylethoxy)phenylthio)propanoyl-CoA] | 791 | 891 | 839 | 832 | -0.6564 | -0.8291 | -0.8501 |  |  |  |  |  |  |  |  |  |
| CC(Sc1cccc(OCc2ccccc2)c1)C(=O)SCCNC(=O)CCNC(=O)C(O)C(C)(C)COP(=O)(O)OP(=O)(O)OCC1OC(n2cnc3c(N)ncnc32)C(O)C1OP(=O)(O)O (racemic) [Compound 2, (±)-2-(3-Benzyloxyphenylthio)propanoyl-CoA] | 1630 | 619 | 487 | 794 | -0.7954 | -0.7479 | -0.8395 |  |  |  |  |  |  |  |  |  |
| COc1cccc(CCOc2ccc(SC(C)C(=O)SCCNC(=O)CCNC(=O)C(O)C(C)(C)COP(=O)(O)OP(=O)(O)OCC3OC(n4cnc5c(N)ncnc54)C(O)C3OP(=O)(O)O)cc2)c1 (racemic) [Compound 11, (±)-2-(4-(2-(3-Methoxyphenyl)ethoxy)phenylthio)propanoyl-CoA] | 669 | 1310 | 598 | 813 | -0.8553 | -1.1060 | -0.6966 |  |  |  |  |  |  |  |  |  |
| COc1cccc(COc2cccc(SC(C)C(=O)SCCNC(=O)CCNC(=O)C(O)C(C)(C)COP(=O)(O)OP(=O)(O)OCC3OC(n4cnc5c(N)ncnc54)C(O)C3OP(=O)(O)O)c2)c1 (racemic) [Compound 3, (±)-2-(3-(3-Methoxybenzyloxy)phenylthio)propanoyl-CoA] | 401 | 425 | 228 | 339 | -0.6534 | -0.5594 | -0.7275 |  |  |  |  |  |  |  |  |  |
| CC(C)COc1cccc(SC(C)C(=O)SCCNC(=O)CCNC(=O)C(O)C(C)(C)COP(=O)(O)OP(=O)(O)OCC2OC(n3cnc4c(N)ncnc43)C(O)C2OP(=O)(O)O)c1 (racemic) [Compound 7, (±)-2-(3-(2-Methylpropoxy)phenylthio)propanoyl-CoA] | 4030 | 3320 | 4760 | 3980 | -0.7207 | -0.6683 | -0.7565 |  |  |  |  |  |  |  |  |  |
| CC(Sc1ccc(OCc2ccccc2)cc1)C(=O)SCCNC(=O)CCNC(=O)C(O)C(C)(C)COP(=O)(O)OP(=O)(O)OCC1OC(n2cnc3c(N)ncnc32)C(O)C1OP(=O)(O)O (racemic) [Compound 8, (±)-2-(4-Benzyloxyphenylthio)propanoyl-CoA] | 2620 | 2610 | 2800 | 2690 | -0.8760 | -0.9668 | -0.9845 |  |  |  |  |  |  |  |  |  |
| CC(Sc1ccc(OCCc2cccc(C(F)(F)F)c2)cc1)C(=O)SCCNC(=O)CCNC(=O)C(O)C(C)(C)COP(=O)(O)OP(=O)(O)OCC1OC(n2cnc3c(N)ncnc32)C(O)C1OP(=O)(O)O (racemic) [Compound 12, (±)-2-(4-(2-(3-Trifluoromethylphenethoxy)phenylthio)propanoyl-CoA] | 828 | 706 | 1040 | 851 | -1.1570 | -1.0035 | -1.3522 |  |  |  |  |  |  |  |  |  |
| CC(C)Cc1ccc(C(C)C(=O)SCCNC(=O)CCNC(=O)C(O)C(C)(C)COP(=O)(O)OP(=O)(O)OCC2OC(n3cnc4c(N)ncnc43)C(O)C2OP(=O)(O)O)cc1 (centres unmarked) [ibuprofenoyl-CoA] |  |  |  |  |  |  |  | 3040 ± 340 | 5.65 ± 0.05 |  |  |  |  |  |  |  |
| COc1cccc(COc2ccc(SC(C)C(=O)SCCNC(=O)CCNC(=O)C(O)C(C)(C)COP(=O)(O)OP(=O)(O)OCC3OC(n4cnc5c(N)ncnc54)C(O)C3OP(=O)(O)O)cc2)c1 (racemic) [Compound 9, (±)-2-(4-(3-Methoxybenzyloxy)phenylthio)propanoyl-CoA] | 2670 | 2250 | 2840 | 2570 | -1.2477 | -0.8652 | -1.1180 |  |  |  |  |  |  |  |  |  |
| CC(Sc1ccc(OCCc2ccccc2)cc1)C(=O)SCCNC(=O)CCNC(=O)C(O)C(C)(C)COP(=O)(O)OP(=O)(O)OCC1OC(n2cnc3c(N)ncnc32)C(O)C1OP(=O)(O)O (racemic) [Compound 10, (±)-2-(4-(2-Phenylethoxy)phenylthio)propanoyl-CoA] | 2140 | 3020 | 2490 | 2510 | -0.9669 | -1.3506 | -1.1651 |  |  |  |  |  |  |  |  |  |
| COc1cccc(CCOc2cccc(SC(C)C(=O)SCCNC(=O)CCNC(=O)C(O)C(C)(C)COP(=O)(O)OP(=O)(O)OCC3OC(n4cnc5c(N)ncnc54)C(O)C3OP(=O)(O)O)c2)c1 (racemic) [Compound 5, (±)-2-(3-(2-(3-Methoxyphenyl)ethoxy)phenylthio)propanoyl-CoA] | 1470 | 1260 | 1490 | 1410 | -1.0666 | -1.0398 | -0.8398 |  |  |  |  |  |  |  |  |  |
| CC(Sc1cccc(OCCc2cccc(C(F)(F)F)c2)c1)C(=O)SCCNC(=O)CCNC(=O)C(O)C(C)(C)COP(=O)(O)OP(=O)(O)OCC1OC(n2cnc3c(N)ncnc32)C(O)C1OP(=O)(O)O (racemic) [Compound 6, (±)-2-(3-(2-(3-Trifluoromethylphenyl)ethoxy)phenylthio)propanoyl-CoA] | 134 | 109 | 316 | 166 | -0.6535 | -0.6960 | -1.0454 |  |  | at least 13.5 times | reversible inhibition | 238 ± 39 | 190 | 315 | 210 | competitive inhibition |
| CC(C(=O)SCCNC(=O)CCNC(=O)C(O)C(C)(C)COP(=O)(O)OP(=O)(O)OCC1OC(n2cnc3c(N)ncnc32)C(O)C1OP(=O)(O)O)c1cccc(Oc2ccccc2)c1 (racemic) [Compound 1, (±)-Fenoprofenoyl-CoA] |  |  |  |  |  |  |  |  | 5.43 ± 0.07 |  |  |  |  |  |  |  |
| CCCCCOc1ccc(SC(C)C(=O)SCCNC(=O)CCNC(=O)C(O)C(C)(C)COP(=O)(O)OP(=O)(O)OCC2OC(n3cnc4c(N)ncnc43)C(O)C2OP(=O)(O)O)cc1 (racemic) [Compound 14, (±)-2-((4-(pentyloxy)phenyl)thio)propanoyl-CoA] | 913 | 690 | 846 | 813 | -0.6352 | -0.8783 | -0.7880 |  |  |  |  |  |  |  |  |  |
| CC(C)COc1ccc(SC(C)C(=O)SCCNC(=O)CCNC(=O)C(O)C(C)(C)COP(=O)(O)OP(=O)(O)OCC2OC(n3cnc4c(N)ncnc43)C(O)C2OP(=O)(O)O)cc1 (racemic) [Compound 13, (±)-2-(4-(2-Methylpropoxy)phenylthio)propanoyl-CoA] | 2070 | 1930 | 1640 | 1860 | -0.7177 | -0.8209 | -0.7335 |  |  |  |  |  |  |  |  |  |
